# Measurements taken from US20260373248A1, “DEGRADABLE PEPTOIDS” (Medici Therapeutics, Inc., priority 2023, published 2026).
# Non-standard residues stand in square brackets, D forms with d. Residues, ends and D or L forms follow the SMILES beside them. Gly(N-(3-decanoyloxypropyl)) = CCCCCCCCCC(=O)OCCCNCC(=O)O; N(3-lauroyloxypropyl)Gly = CCCCCCCCCCCC(=O)OCCCNCC(=O)O; N(2-ethylhexyl)Gly = CCCCC(CC)CNCC(=O)O; N(CH(CH2OH)2)Gly = O=C(O)CNC(CO)CO; NHexGly = CCCCCCNCC(=O)O
# Assays:
# [1] = Delivery vehicle size and polydispersity by dynamic light scattering; type: physicochemical
# Summary of the method: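 Dynamic light scattering in PBS gave size and polydispersity of peptoid LNPs. These were dialyzed overnight at 4 °C into tris-sucrose buffer pH 7.4 after microfluidic 1:3 volume mixing of mRNA in pH 5.0 citrate with ethanol lipids (peptoid:DSPC:cholesterol:DMG-PEG2000 20:1.79:7.16:1.84 w/w).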
# [2] = tested on: mRNA; experiment: mRNA encapsulation (modified Quant-iT RiboGreen assay); type: physicochemical; settings: for mean percent encapsulation of RNA: RiboGreen, without vs with Triton X-100; for % Encapsulation: mRNA
# Summary of the method: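 Encapsulated fraction was calculated by comparing RiboGreen signal (excitation 485 nm, emission 530 nm) of intact particles with that of particles lysed by a 10-min Triton X-100 treatment. Total mRNA concentration was taken from the lysed samples.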
# [3] = tested on: firefly luciferase; experiment: In vivo firefly luciferase expression after intravenous injection of fLuc mRNA delivery vehicles (IVIS imaging); design: species or system female Balb/c mice; settings: for Total Flux: mice, 2.5 ug fLuc mRNA intravenously, 6 hours post-injection; for Total Flux (luciferase expression): fLuc mRNA, intravenous, Balb/c mice
# Summary of the method: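 Read-out is total photon flux per region of interest, from whole-body IVIS images taken 10 minutes after IP D-luciferin (30 mg/mL, 10 μL/g) and from excised organs. Female Balb/c mice aged 6-8 weeks received 2.5 ug fLuc mRNA Nutshells intravenously 6 hours before imaging.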
# [4] = tested on: hEPO; experiment: Quantification of hEPO in serum after IV injection of mRNA (Human EPO ELISA); type: in vivo; settings: Balb/c mice, 2.5 μg mRNA IV, serum after 6 hours
# Summary of the method: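 Balb/c mice received 2.5 μg mRNA encoding human EPO by IV injection; serum was collected after 6 hours. hEPO was measured by sandwich ELISA (biotin-conjugate, streptavidin-HRP, TMB, A450) against kit standards (mIU/mL) and an external standard (ng/mL), with values interpolated and corrected for dilution.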
# [5] = Peptoid quantity remaining in liver by HPLC-TOF mass spectrometry; type: in vivo; settings: liver homogenate
# Summary of the method: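 Whole liver weighed; 20 mg tissue bead-homogenized in IPA/MeOH (8/2) with internal standard, centrifuged, supernatant run on BEH C8 HPLC-TOF MS. Peptoid concentration derived from linear calibration curve (0.2-50 μg/g) prepared in spiked untreated liver.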
# [6] = tested on: luciferase; experiment: Luciferase expression after local (intramuscular or subcutaneous) administration of mRNA; type: in vivo; settings: mRNA 0.01 mpk, 6 hours; for IM Flux: intramuscular; for SC Flux: subcutaneous
# Summary of the method: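 Bioluminescence read 6 hours after fLuc mRNA dosing (peptoid Nutshells; 0.01 mpk S.C. or I.M., 0.1 mpk intratumoral) in female Balb/c mice aged 6-8 weeks. D-luciferin injected IP, whole-body imaging after 10 minutes, then organ imaging; total photon flux per region of interest.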
# [7] = DLS in PBS, peptoid:DSPC:Cholesterol:DMG-PEG2000 weight ratio 20:1.79:7.16:1.84, mRNA
compound,measurement,setting,value
CCCCCCCCCC(=O)OCCCN(CC(N)=O)C(=O)CN(CC(CC)CCCC)C(=O)CN(CCCOC(=O)CCCCCCCCC)C(=O)CN(CCCOC(=O)CCCCCCCCC)C(=O)CN(CC(CC)CCCC)C(=O)CN(CCCOC(=O)CCCCCCCCC)C(=O)CNC(CO)CO (stereo not drawn) [Compound 53] (H-[N(CH(CH2OH)2)Gly][Gly(N-(3-decanoyloxypropyl))][N(2-ethylhexyl)Gly][Gly(N-(3-decanoyloxypropyl))][Gly(N-(3-decanoyloxypropyl))][N(2-ethylhexyl)Gly][Gly(N-(3-decanoyloxypropyl))]-NH2),PDI,[1]; [7],0.153
same,Particle Size,[1]; [7],88.5 nm
same,mean percent encapsulation of RNA,[2],36.0%
same,Total Flux,[3],4.46E+08 p/s
same,hEPO,[4],71.6 ng/mL
same,% of injected dose remaining in liver,[5],0.13%
same,IM Flux,[6],5.34E+08 p/s
same,SC Flux,[6],2.78E+08 p/s
CCCCCCCCCC(=O)OCCCN(CC(=O)N(CC(=O)N(CC(=O)N(CCCOC(=O)CCCCCCCCC)CC(=O)N(CC(N)=O)CC(CC)CCCC)CC(CC)CCCC)CC(CC)CCCC)C(=O)CN(CC(CC)CCCC)C(=O)CNC(CO)CO (stereo not drawn) [Compound 5] (H-[N(CH(CH2OH)2)Gly][N(2-ethylhexyl)Gly][Gly(N-(3-decanoyloxypropyl))][N(2-ethylhexyl)Gly][N(2-ethylhexyl)Gly][Gly(N-(3-decanoyloxypropyl))][N(2-ethylhexyl)Gly]-NH2),PDI,[1]; [7],0.076
same,Particle Size,[1]; [7],86.2 nm
same,Particle Size,[1]; formulation recipe D22,86.2 nm
same,Particle Size,[1]; formulation recipe O3,81.6 nm
same,Particle Size,[1]; formulation recipe O7,51.7 nm
same,mean percent encapsulation of RNA,[2],84.8%
same,% Encapsulation,[2]; formulation recipe D22,84.8%
same,% Encapsulation,[2]; formulation recipe O3,82.2%
same,% Encapsulation,[2]; formulation recipe O7,93.5%
same,Total Flux (luciferase expression),[3]; formulation recipe D22,1.77E+09 p/s
same,Total Flux (luciferase expression),[3]; formulation recipe O3,3.25E+09 p/s
same,Total Flux (luciferase expression),[3]; formulation recipe O7,1.93E+09 p/s
same,Total Flux,[3],1.77E+09 p/s
same,hEPO,[4],278 ng/mL
same,% of injected dose remaining in liver,[5],14.71%
same,IM Flux,[6],1.62E+08 p/s
same,SC Flux,[6],1.71E+08 p/s
CCCCCCCCCCCC(=O)OCCCN(CC(=O)N(CC(N)=O)CC(CC)CCCC)C(=O)CN(CCCCCC)C(=O)CN(CC(CC)CCCC)C(=O)CN(CCCOC(=O)CCCCCCCCCCC)C(=O)CN(CCCCCC)C(=O)CNC(CO)CO (stereo not drawn) [Compound 54] (H-[N(CH(CH2OH)2)Gly][NHexGly][N(3-lauroyloxypropyl)Gly][N(2-ethylhexyl)Gly][NHexGly][N(3-lauroyloxypropyl)Gly][N(2-ethylhexyl)Gly]-NH2),PDI,[1]; [7],0.141
same,Particle Size,[1]; [7],126.1 nm
same,mean percent encapsulation of RNA,[2],33.5%
same,Total Flux,[3],3.53E+08 p/s
same,hEPO,[4],37.4 ng/mL
same,% of injected dose remaining in liver,[5],8.64%
same,IM Flux,[6],1.52E+07 p/s
same,SC Flux,[6],2.18E+07 p/s
